From patent US20220009918A1, “Chemical Compounds” (GlaxoSmithKline Intellectual Property Development Limited, priority 2018, published 2022) come the findings set out here.

Entries after “also recorded” stand apart in the source; their conditions may differ.

One assay relates to male C57Bl/6N mice. As to the kind of experiment: In vivo functional response to muscle injury (eccentric contraction-induced). Further details: species or system mouse. On the procedure:
FIG. 1. Effect of different doses of an H-PGDS inhibitor, Example 16, on limb force following eccentric (lengthening) contraction-induced muscle injury in normal C57Bl6/N mice. Doses were administered 10 minutes prior to damage and QD thereafter.
In Vivo Assays for Functional Response to Muscle Injury
Under anesthesia, the right hind limb of a mouse is restrained at the knee and the foot attached to a motorized footplate/force transducer. Needle electrodes are inserted into the upper limb, either side of the sciatic nerve and a current sufficient to elicit a maximal muscle contraction is applied. Muscle tension is produced by moving the footplate to lengthen the plantarflexor muscles while the limb is under maximal stimulation. This is repeated 60 times to fatigue the muscles of the lower limb. Anesthesia, limb immobilization and limb stimulation are then repeated at regular intervals to measure maximal isometric force in the recovering limb. 7 to 9 animals are tested for each test condition.

For assay [1], the system named is prostaglandin D2 generation following 48/80-induced mast cell degranulation. The assay can be described thus: In vivo mast cell activation: compound 48/80 challenge, peritoneal lavage PGD2 by LC/MS/MS. Also noted: species or system mouse. The note with it: normal C57Bl6/N mice, oral 0.01-1.0 mg/kg ~1 hour prior to 48/80 (i.p.), lavage 7 minutes afterwards. The protocol:
In Vivo Mast Cell Activation
Mice were randomized by body weight into 8 groups (n=8): Vehicle (0.5% HPML with 0.1% Tween80)+phosphate buffered saline (PBS), vehicle+compound 48/80 (0.75 mg/mL) and compound 48/80+Example 16 at various doses ranging from 0.01 mg/kg to 1.0 mg/kg.
C57BL mice were dosed orally with vehicle, or Example 16 at 0.01, 0.03, 0.1, 0.3, & 1.0 mg/kg. One hour later, blood samples were withdrawn via tail snip for measurement of drug levels, and mice were then terminally anesthetized with 2% isoflurane and given an intraperitoneal injection of 0.2 mL PBS or compound 48/80 solution (0.75 mg/mL, Sigma), followed by gentle massage of the abdomen. […]
Samples were thawed at room temperature and vortex-mixed. […] The plate was vortex-mixed for 30 seconds at 1000 rpm and analyzed by LC/MS/MS.
The analytical system consisted of a CTC HTS PAL autoinjector (Leap, Carrboro, N.C.), an Agilent 1290 Infinity binary pump and thermostated column compartment (Agilent Technologies, Santa Clara, Calif.) and an AB Sciex QTRAP 5500 mass spectrometer (AB Sciex, Framingham, Mass.). […] The analytes were detected by multiple reaction monitoring (MRM) in negative mode using Turbolon spray with the transitions of m/z 351/271 amu for PGD2/PGE2 and m/z 360/280 amu for PGD2-d9/PGE2-d9. Data were acquired, analyzed and quantified using Analyst software version 1.6.2 (AB Sciex, Framingham, Mass.). […]

`CC1(C)C[C@H](NC(=O)c2cnc(-c3cc(F)cc(Cl)c3)s2)C(=O)N1` (single isomer, unassigned) [Example 16]: in the assay with male C57Bl/6N mice (male C57Bl/6N mice, PO immediately prior to eccentric contraction challenge), the “protection from strength loss (maximal isometric torque) 24 hours after injury” value was “dose-dependent protection from strength loss”. For the same molecule, the “restoration of muscle function after 9 days” value with male C57Bl/6N mice (male C57Bl/6N mice, repeat dosing (QD) PO, all doses greater than 0.1 mg/kg) is on record as “full restoration of muscle function”. The “limb force / functional repair following eccentric contraction-induced limb muscle injury (FIG. 1)” value in the assay on male C57Bl/6N mice (normal C57Bl6/N mice, doses 10 minutes prior to damage and QD thereafter) is on record as “Accelerates Functional Repair”. Besides, the “PGD2 generation in peritoneal lavage fluid following compound 48/80 challenge (FIG. 2)” value in assay [1] is reported as “prevents 48/80-induced PGD2 generation; also recorded: Dose-Dependent Reduction in Peritoneal Lavage Fluid PGD2”.
